Assay [1] in a line: Inhibition of human recombinant COX1 using arachidonic acid as substrate after 3 mins by fluorimetric analysis.
Assay [2] in a line: Inhibition of human recombinant full-length LDHA using sodium pyruvate as substrate after 60 mins by resazurin dye-based assay.
Assay [3] in a line: Inhibition of human recombinant PDE3A using [3H]cAMP after 20 mins by scintillation counting analysis.
A short description of assay [4]: Inhibition of human MAOA using kynuramine as substrate after 20 mins by spectrophotometric analysis.
A short description of assay [5]: Inhibition of human thrombin using Z-GPR-AMC as substrate after 30 mins by fluorimetric analysis.
Assay [6] in a line: Inhibition of human IDO using L-tryptophan as substrate after 30 mins by Ehrlich's reagent based assay.
Assay [7] is described as follows: Displacement of [125I]pirenzepine from human recombinant M1 receptor after 60 mins by scintillation counting analysis. (Loss of bound radioactivity is the signal in a displacement assay; it reports binding, not function.)
Assay [8] is described as follows: Inhibition of human carbonic anhydrase 2 using 4-nitrophenyl acetate as substrate after 20 mins by spectrophotometric analysis.
Assay [9] in a line: Inhibition of human MAGL.
The nature of assay [10]: Inhibition of human recombinant Lck using Ulight-Poly GAT[EAY(1:1:1)]n as substrate after 10 mins by LANCE analysis. Background: Time-resolved FRET reads energy transfer from a long-lived donor to a nearby acceptor.
Assay [11] can be described thus: Displacement of [3H]muscimol from recombinant human GABAalpha1beta2gamma2 measured after 120 mins by scintillation counting method.
Assay [12] can be described thus: Displacement of [3H]8-OH-DPAT from recombinant human 5-HT1A receptor after 60 mins by scintillation counting analysis.
Assay [13] is described as follows: Inhibition of human recombinant acetylcholinesterase using acetylthiocholine as substrate after 30 mins by spectrophotometric analysis.
Assay [14] in a line: Inhibition of human recombinant ACE using Abz-FRK(Dnp)-P-OH as substrate after 30 mins by fluorimetric analysis.
Assay [15] in a line: Displacement of [3H]WY 14643 from human recombinant PPARalpha receptor at 10 uM after 120 mins by scintillation counting analysis relative to control.
The nature of assay [16]: Inhibition of human recombinant C-terminal His-tagged PHGDH (1 to 533 residues) expressed in Escherichia coli using 3-phosphoglycerate as substrate.
Assay [17] can be described thus: Displacement of [3H]CP 55940 from human recombinant CB1 receptor after 120 mins by scintillation counting analysis.
A short description of assay [18]: Inhibition of human recombinant Arg1 using L-arginine as substrate after 5 mins in presence of [guanidino-14C]-L-arginine by liquid scintillation counting analysis.

Structures are written as SMILES.

Usually IC50 stands for the concentration needed to halve the response being measured.

For `O=C(NNC(=S)Nc1ccc(Cl)c(Cl)c1)c1ccccc1O`, the IC50 in assay [1] was 8 nM; in assay [2] it was 577000 nM; in [3], 490 nM; in assay [4], 40 nM; in assay [5], 0.103 nM; in assay [6], 37000 nM. The IC50 in [7] is 22 nM; in assay [8], 29 nM; in assay [9], 363 nM; in assay [10] it was 31 nM; in [11], 75 nM; in [12] it was 0.6 nM. Further, the concentration for half-maximal inhibition (IC50) stood at 520 nM in assay [13]; 0.7 nM in [14]; 52 nM in [15]; 8700 nM in assay [16]; 0.58 nM in [17]; 13000 nM in assay [18].
